{"source": "patent US9775844B2", "about": "“Heterocyclic compounds and uses thereof” (Infinity Pharmaceuticals, Inc., priority 2014, dated 2017)", "key": {"[1]": {"assay": "Expected oral half-life in humans (from animal data)", "conditions": "human, based on rat, dog, monkey data"}, "Plasma protein binding": {"assay": "Plasma protein binding", "assay_type": "in vitro ADME", "conditions": "all species, read-out: PPB % free @ 1 uM"}, "LLC tumor brei [2]": {"tested_on": "LLC tumor brei", "assay": "Lewis Lung Carcinoma (LLC tumor brei) model", "assay_type": "in vivo, mouse", "conditions": "single agent, FIG. 25A/25B", "description": "Compound BB was tested in the Lewis Lung Carcinoma model, which is known in the art and briefly described hereinabove.\nLLC tumor brei model was prepared and injected subcutaneously into a mouse in the hind flank region. The tumor brei was prepared as follows. LL2-Luc tumor cells were grown in culture in DMEM+10% FBS. Cells were implanted @ 1×10^6 cells/100 uL SC in the flank of C57 Albino mice (male) When tumors reached 1000 mm3, tumors were harvested. Only the white, living tissue was harvested. Any material containing visable blood or necrotic area was isolated away from the tumor tissue. Tumor tissue was placed in a Dounce tissue homoginized with 5 mLs of warm DMEM (no FBS). About 1-2 grams of tumor tissue was collected, homogenized, pooled into 50 mL falcon tube, and cells were counted. Cells were spinned @ 12,000 RPM, and FBS was pooled off. Cells were resuspended to equal 1×10^7 cells/mL with sterile PBS. 100 uL of cells/mouse SC at the hind flank region were implanted. This process was repeated one more time before conducting brei tumor efficacy study."}, "[3]": {"tested_on": "Cytochrome P450 isoforms (all main CYPs)", "assay": "Cytochrome P450 inhibition", "assay_type": "in vitro ADME", "conditions": "reversible inhibition, all Cyps; read-out: Rev Cyp Inhibition IC50", "from_the_text": "(§1) These properties indicate the compound's suitability for in vivo administration."}, "Cytochrome P450 isoforms": {"tested_on": "Cytochrome P450 isoforms", "assay": "Cytochrome P450 inhibition", "assay_type": "in vitro ADME", "from_the_text": "as §1"}, "bone marrow macrophages": {"tested_on": "bone marrow macrophages", "assay": "RANKL driven differentiation of osteoclasts from bone marrow macrophages", "assay_type": "cell-based"}, "[4]": {"assay": "Dose-exposure proportionality", "conditions": "in vivo"}, "GSH Adduct Formation": {"assay": "GSH Adduct Formation", "assay_type": "in vitro ADME"}, "[5]": {"assay": "Pharmacokinetics in rodent and non-rodent animal species", "assay_type": "in vivo", "from_the_text": "as §1"}, "human hepatocytes": {"tested_on": "human hepatocytes", "assay": "Human hep viability", "assay_type": "cell-based", "conditions": "Hepatocyte"}, "LLC tumor brei [6]": {"tested_on": "LLC tumor brei", "assay": "LLC tumor brei model with or without cyclophosphamide (tumor growth, FACS)", "assay_type": "in vivo, mouse"}, "[7]": {"assay": "Metabolic stability (microsome stability assay)", "assay_type": "in vitro ADME", "description": "The stability of one or more subject compounds is determined according to standard procedures known in the art. For example, stability of one or more subject compounds is established by an in vitro assay. For example, an in vitro microsome stability assay is established that measures stability of one or more subject compounds when reacting with mouse, rat or human microsomes from liver. The microsome reaction with compounds is performed in 1.5 mL Eppendorf tube. Each tube contains 0.1 μL of 10.0 mg/mL NADPH; 75 μL of 20.0 mg/mL mouse, rat or human liver microsome; […] of 0.2 M phosphate buffer, and 425 μL of ddH2O. Negative control (without NADPH) tube contains 75 μL of 20.0 mg/mL mouse, rat or human liver microsome; […] of 0.2 M phosphate buffer, and 525 μL of ddH2O. The reaction is started by adding 1.0 μL of 10.0 mM tested compound. The reaction tubes are incubated at 37° C. 100 μL sample is collected into new Eppendorf tube containing 300 μL cold methanol at 0, 5, 10, 15, 30 and 60 minutes of reaction. Samples are centrifuged at 15,000 rpm to remove protein. Supernatant of centrifuged sample is transferred to new tube. Concentration of stable compound after reaction with microsome in the supernatant is measured by Liquid Chromatography/Mass Spectrometry (LC-MS).\nas §1"}, "[8]": {"assay": "Mouse pharmacokinetics, oral single and repeat dose", "conditions": "in vivo, 10 mg/kg in NMP solution, read-out: Mouse PK AUClast @ 10 mg/kg in NMP solution"}, "[9]": {"tested_on": "CXCL12-induced pAKT in T-cells", "assay": "CXCL12-induced pAKT assay in T-cells", "assay_type": "cell-based, human", "conditions": "FIG. 9", "from_the_text": "There was a tight correlation between the EC50s observed in the CXCL12-induced pAKT assay and the T-cell migration assay."}, "[10]": {"tested_on": "CD11b+ myeloid cells in 4T1 tumors", "assay": "Immunohistochemistry of CD11b / CD68 myeloid cells in 4T1 tumors", "assay_type": "in vivo, mouse", "conditions": "vs vehicle/controls", "description": "Immunohistochemistry was performed to determine the distribution of immune cells within the tumor. In particular, CD11b myeloid cells were examined, as were regulatory vs. effector T cells (CD3, CD4, CD8, FoxP3). Briefly, IHC for CD11b or CD68+ was performed as follows. CD11b antibodies were available from Abcam, clone I-70, Catalong # ab 8878. CD68 antibodies were available from Abcam, clone FA-11, catalog # ab 53444. Tissues were fixed in cold methanol, air-dried, and then stained using a Res IHC Omni-UltraMap HRP XT protocol.\nWithout being bound by a particular theory, the decrease in the pro-tumorigenic tumor associated myeloid cells can result in activation of cytotoxic T-cells and anti-tumor immunity. […] When the images were quantified as CD11b+ cells per total viable cells (FIG. 37E), a Student t-Test p-value of 0.0355 was obtained when comparing the Compound BB-treated cells to controls. When the images were quantified as CD11b+ stained area per total visible area (FIG. 37F), a Student t-Test p-value of 0.0441 was obtained when comparing the Compound BB-treated cells to controls. […] When the images were quantified as CD11b+ cells per total viable cells (FIG. 37G), a Student t-Test p-value of 0.0864 (d16) or 0.3967 (d22) was obtained when comparing the Compound BB-treated cells to controls. […]"}, "[11]": {"tested_on": "M2 macrophage markers VEGF and ARG-1", "assay": "M2 macrophage marker expression with or without PDL-1 antibody (FIG. 42)"}}, "data": [{"smiles": "C[C@H](NC(=O)c1c(N)nn2cccnc12)c1cc2cccc(C#Cc3cnn(C)c3)c2c(=O)n1-c1ccccc1", "note": "[Compound BB]", "values": [{"measurement": "half-life", "setting": "[1]", "result": "10 to 13", "unit": "h"}, {"measurement": "fraction unbound at 1 uM", "setting": "Plasma protein binding", "result": "0.01 to 0.05"}, {"measurement": "tumor growth, Lewis Lung Carcinoma model", "setting": "LLC tumor brei [2]", "result": "single agent activity"}, {"measurement": "IC50", "setting": "[3]", "result": "> 10", "unit": "µM"}, {"measurement": "CYP inhibition", "setting": "Cytochrome P450 isoforms", "result": "does not substantially inhibit CYP"}, {"measurement": "reversible inhibition of main Cytochrome P450 isoforms", "setting": "Cytochrome P450 isoforms", "result": "low potential for reversible inhibition"}, {"measurement": "Time dep Cyp Inhibition @ 10 uM", "setting": "Cytochrome P450 isoforms; time dependent, 10 uM", "result": "Neg"}, {"measurement": "RANKL driven differentiation of osteoclasts", "setting": "bone marrow macrophages", "result": "prevents"}, {"measurement": "dose-exposure proportionality", "setting": "[4]", "result": "exhibits dose-exposure proportionality"}, {"measurement": "GSH Adduct Formation", "setting": "GSH Adduct Formation", "result": "Neg"}, {"measurement": "clearance", "setting": "[5]; in vivo", "result": "low clearance"}, {"measurement": "half-life in vivo", "setting": "[5]; in vivo", "result": "long half-life"}, {"measurement": "volume of distribution", "setting": "[5]; in vivo", "result": "high volume of distribution"}, {"measurement": "oral bioavailability", "setting": "[5]; rodent and non-rodent animal species", "result": "high oral bioavailability"}, {"measurement": "IC50", "setting": "human hepatocytes", "result": "10 to 25", "unit": "µM"}, {"measurement": "tumor growth, LLC tumor brei model", "setting": "LLC tumor brei [6]; Compound BB 15 mg/kg QD PO, cyclophosphamide 50 mg/kg EOD IP", "result": "reduced tumor growth"}, {"measurement": "CD206 population in LLC tumors (FACS)", "setting": "LLC tumor brei [6]; Compound BB PO QD alone or with cyclophosphamide", "result": "decrease in the CD206 population"}, {"measurement": "metabolic stability", "setting": "[7]", "result": "high metabolic stability"}, {"measurement": "half-life at 20 µM", "setting": "[7]; liver microsomes, microsomes, all species (incl rat)", "result": "> 2", "unit": "h"}, {"measurement": "AUC(0-t)", "setting": "[8]", "result": 83700, "unit": "ng·h/mL"}, {"measurement": "inhibition of CXCL12-induced pAKT in T-cells", "setting": "[9]", "result": "inhibited CXCL12-induced pAKT in T-cells more strongly"}, {"measurement": "CD11b+ cells in 4T1 tumors (IHC)", "setting": "[10]", "result": "statistically significant reduction in CD11b+ cells"}, {"measurement": "M2 macrophage marker ARG-1", "setting": "[11]", "result": "reduced"}, {"measurement": "M2 macrophage marker VEGF", "setting": "[11]", "result": "reduced"}]}]}
